From ChEMBL document CHEMBL1150158, “Lyngbyastatin 1 and Ibu-epilyngbyastatin 1: synthesis, stereochemistry, and NMR line broadening” (J Nat Prod, 2002)
pEC50: −log10 of the molar value. ≈ marks a conversion by molar mass, not a printed value. Numbered stars: 1 amine (or outer) side, 2 acyl side, 3 side chain; on linkers, the order of the positions; unused ones are H or OH. Square brackets hold non-standard residues; d marks the D form. Peptide text beside a SMILES is read from it. X1 = CC[C@H](C)[C@H](OC(=O)[C@@H](C)[C@@H](CC)N[*:1])C(=O)[*:2]; X3 = C[C@@H](N[*:1])C(=O)C(C)(C)C(=O)[*:2]; X2 = C[C@H](N[*:1])C(=O)C(C)(C)C(=O)[*:2]; NMeY = CN[C@@H](Cc1ccc(O)cc1)C(=O)O; NMeL = CN[C@@H](CC(C)C)C(=O)O; NMeV = CN[C@H](C(=O)O)C(C)C

Key:
NCI-H460 = experiment: Growth inhibition of human NCI-H460 cells; type: functional
DU-145 = experiment: Growth inhibition of human DU145 cells; type: functional
[1] = Induction of rabbit muscle actin polymerization after 1 hr; design: species or system Oryctolagus cuniculus, Muscle tissue

SMILES | GI50 (NCI-H460) | GI50 (DU-145) | pEC50 [1]
CC[C@H](C)[C@@H]1OC(=O)[C@@H](C)[C@@H](CC)NC(=O)[C@H](C)NC(=O)C(C)(C)C(=O)[C@H](C)NC(=O)[C@H](Cc2ccc(OC)cc2)N(C)C(=O)[C@H](C(C)C)N(C)C(=O)CNC(=O)[C@H](CC(C)C)N(C)C(=O)CNC1=O [DOLASTATIN 11] (cyclo(A[X1]G[NMeL]G[NMeV][NMeY](Me)[X2])) | 0.0013 µg/mL (≈ 0.00132 µM) | 0.22 µg/mL (≈ 0.223 µM) | 5.02
CC[C@H](C)[C@@H]1OC(=O)[C@@H](C)[C@@H](CC)NC(=O)[C@H](C)NC(=O)C(C)(C)C(=O)[C@@H](C)NC(=O)[C@H](Cc2ccc(OC)cc2)N(C)C(=O)[C@H](C(C)C)N(C)C(=O)CNC(=O)[C@H](CC(C)C)N(C)C(=O)CNC1=O (cyclo(A[X1]G[NMeL]G[NMeV][NMeY](Me)[X3])) | 0.031 µg/mL (≈ 0.0315 µM) | 0.24 µg/mL (≈ 0.244 µM) | –
